Measured values taken from patent US10131679B2, “Substituted dihydropyrrolopyrazole compound” (UBE INDUSTRIES, LTD., priority 2014, dated 2018).

Key:
Type in all cases: biochemical
PAK4 = biological target: T1, PAK4 (Homo sapiens, UniProt O96013); assay: PAK4 enzyme inhibition test; details: Ki=IC50/(1+S/Km); 33P bound to MBP, [γ-33P]ATP, 30° C. for 20 minutes; read-out: Ki value of PAK4 inhibitory activity
T1 construct: purchased Invitrogen Corp. PV4212
Protocol: PAK4 Enzyme Inhibition Test
The preparation of a buffer solution was performed by mixing a trishydroxyaminomethane buffer solution (Tris buffer solution) (pH 7.5), DTT, Triton X-100, MgCl2, ethylene glycol bis(β-aminoethyl ether)-N,N,N′,N′-tetraacetic acid (EGTA), (3-glycerol phosphate, and sodium orthovanadate(V). A 40 μM [γ-^33P]ATP solution was used by diluting a 10 mM ATP solution and a commercially available [γ-^33P]ATP solution (manufactured by PerkinElmer, Inc., Code No. NEG-302H) with the buffer solution. A PAK4 solution was used by diluting commercially available PAK4 (manufactured by Invitrogen Corp., Catalog No. PV4212) with the buffer solution. A substrate solution was used by diluting MBP with the buffer solution. As for the preparation of a reaction solution, the buffer solution, the 40 μM [γ-^33P]ATP solution, the PAK4 solution, and the substrate solution were mixed at 4° C. to obtain a reaction solution.
PAK4 enzyme reaction was performed by adding 5 μL of a test compound solution prepared with 10% DMSO/90% injectable distilled water, and 45 μL of the reaction solution in a 1.5 mL microtube at 4° C. and reacting in the microtube at 30° C. for 20 minutes in a water bath incubator. After the reaction, a 10% aqueous TCA solution was added to each microtube while cooled to 4° C., and mixed to terminate the reaction. The resultant was left standing at 4° C. for 10 minutes and then centrifuged in a centrifuge, and the supernatant was discarded. Next, a 2% aqueous TCA solution was added, mixed, and then centrifuged in a centrifuge, and the supernatant was discarded. This washing operation was performed twice. After the washing, precipitates were dissolved in a 1 N aqueous NaOH solution, and the radioactivity was measured with a liquid scintillation counter.
The calculation of the inhibitory activity of the test compound against PAK4 was performed as a test compound concentration inhibiting 50% of the amount of ^33P bound to MBP (IC50 value) by using EXSUS (version 8.0.0 or version 8.0.1, manufactured by CAC Exicare Corp.).
The calculation of a Ki value was performed according to the following calculation expression. S means the concentration of ATP contained in the reaction solution, and Km means a Michaelis-Menten constant. Ki=IC50/(1+S/Km)

CDK7 = biological target: T2, CDK7 (Homo sapiens, UniProt P50613); assay: CDK7 enzyme inhibition test; details: Ki=IC50/(1+S/Km); 33P bound to MBP, [γ-33P]ATP, 30° C. for 20 minutes; read-out: Ki value of CDK7 inhibitory activity
T2 construct: purchased Carna Biosciences, Inc. 04-108
T2 sequence (P50613 whole entry): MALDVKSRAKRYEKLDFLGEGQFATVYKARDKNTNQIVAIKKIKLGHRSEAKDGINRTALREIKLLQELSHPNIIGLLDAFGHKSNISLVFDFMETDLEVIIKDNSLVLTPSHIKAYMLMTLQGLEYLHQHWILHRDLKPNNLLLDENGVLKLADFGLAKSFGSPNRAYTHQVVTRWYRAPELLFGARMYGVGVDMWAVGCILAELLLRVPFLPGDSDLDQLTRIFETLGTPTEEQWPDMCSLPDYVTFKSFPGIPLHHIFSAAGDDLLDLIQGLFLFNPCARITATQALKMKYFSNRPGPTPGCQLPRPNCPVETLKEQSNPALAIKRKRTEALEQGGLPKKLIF
T2 sequence (P51946 whole entry partner): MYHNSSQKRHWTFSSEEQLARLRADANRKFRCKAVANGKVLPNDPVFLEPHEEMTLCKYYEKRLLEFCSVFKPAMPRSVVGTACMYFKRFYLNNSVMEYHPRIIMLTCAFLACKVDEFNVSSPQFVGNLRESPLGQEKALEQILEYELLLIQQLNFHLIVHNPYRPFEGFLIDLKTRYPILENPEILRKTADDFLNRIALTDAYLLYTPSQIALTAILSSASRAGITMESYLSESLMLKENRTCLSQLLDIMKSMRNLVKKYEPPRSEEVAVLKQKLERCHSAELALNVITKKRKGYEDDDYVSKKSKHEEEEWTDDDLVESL
T2 sequence (P51948 whole entry partner): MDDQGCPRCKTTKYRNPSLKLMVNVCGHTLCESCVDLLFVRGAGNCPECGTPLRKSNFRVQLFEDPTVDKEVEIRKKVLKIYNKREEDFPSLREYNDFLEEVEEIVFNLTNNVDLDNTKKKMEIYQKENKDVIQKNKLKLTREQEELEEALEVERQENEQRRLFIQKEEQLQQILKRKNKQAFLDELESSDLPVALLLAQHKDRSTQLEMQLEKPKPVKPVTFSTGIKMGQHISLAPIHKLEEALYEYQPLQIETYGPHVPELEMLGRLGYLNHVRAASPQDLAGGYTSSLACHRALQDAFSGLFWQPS
Outline: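 Recombinant CDK7 with MBP substrate and [γ-33P]ATP (500 μM solution, diluted into the mix) in HEPES pH 7.4/DTT/Triton X-100/MgCl2, 20 min at 30 °C. TCA-precipitated 33P-MBP counted by scintillation; IC50 from inhibition, Ki = IC50/(1+S/Km).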

CDK2 = biological target: T3, CDK2 (Homo sapiens, UniProt P24941); assay: CDK2 enzyme inhibition test; details: Ki=IC50/(1+S/Km); 33P bound to MBP, [γ-33P]ATP, 30° C. for 20 minutes; read-out: Ki value of CDK2 inhibitory activity
T3 construct: purchased Invitrogen Corp. PV3267
Outline: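 Commercial CDK2 with MBP substrate and [γ-33P]ATP (500 μM solution, before mixing) in HEPES pH 7.4 buffer with DTT, Triton X-100 and MgCl2; 20 min at 30 °C. TCA-precipitated 33P-MBP counted by liquid scintillation; IC50 from inhibition of 33P incorporation, Ki = IC50/(1+S/Km).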

T1 sequence (O96013 whole entry): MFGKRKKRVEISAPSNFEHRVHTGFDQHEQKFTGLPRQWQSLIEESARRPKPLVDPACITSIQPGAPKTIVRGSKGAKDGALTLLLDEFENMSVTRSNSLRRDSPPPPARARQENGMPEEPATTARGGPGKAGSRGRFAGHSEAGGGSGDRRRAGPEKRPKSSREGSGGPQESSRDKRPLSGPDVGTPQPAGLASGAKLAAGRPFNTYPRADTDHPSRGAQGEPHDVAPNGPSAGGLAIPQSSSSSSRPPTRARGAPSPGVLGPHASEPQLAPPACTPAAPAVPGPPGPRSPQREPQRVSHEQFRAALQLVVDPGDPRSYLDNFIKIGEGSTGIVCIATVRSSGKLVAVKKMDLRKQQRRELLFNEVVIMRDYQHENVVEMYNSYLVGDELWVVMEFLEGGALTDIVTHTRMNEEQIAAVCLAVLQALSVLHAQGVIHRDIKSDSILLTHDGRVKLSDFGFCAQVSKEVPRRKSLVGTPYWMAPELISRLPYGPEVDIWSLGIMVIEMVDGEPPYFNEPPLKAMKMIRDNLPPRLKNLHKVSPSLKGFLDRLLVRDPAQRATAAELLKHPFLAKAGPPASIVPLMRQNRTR

SMILES	Ki (PAK4) [nM]	Ki (CDK7) [nM]	Ki (CDK2) [nM]
CC1(C)c2[nH]nc(NC(=O)C3([Si](C)(C)C)CCC3)c2CN1C(=O)NC(c1ccccc1)C1(CO)CCC1 (centres unmarked) [IV-718, N-{[1-(Hydroxymethyl)cyclobutyl](phenyl)methyl}-6,6-dimethyl-3-[1-(trimethylsilyl)cyclobutanecarboxamido]-4,6-dihydropyrrolo[3,4-c]pyrazole-5(1H)-carboxamide]	≥ 500	–	≥ 1000
CC(C)(CO)C(NC(=O)N1Cc2c(NC(=O)C3([Si](C)(C)C)CCC3)n[nH]c2C1(C)C)c1cccc(F)c1 (centres unmarked) [IV-918, N-[1-(3-Fluorophenyl)-3-hydroxy-2,2-dimethylpropyl]-6,6-dimethyl-3-[1-(trimethylsilyl)cyclobutanecarboxamido]-4,6-dihydropyrrolo[3,4-c]pyrazole-5(1H)-carboxamide]	≥ 500	–	–
CC(C)(CO)C(NC(=O)N1Cc2c(NC(=O)C3([Si](C)(C)C)CCC3)n[nH]c2C1(C)C)c1ccc(F)cc1 (centres unmarked) [IV-946, N-[1-(4-Fluorophenyl)-3-hydroxy-2,2-dimethylpropyl]-6,6-dimethyl-3-[1-(trimethylsilyl)cyclobutanecarboxamido]-4,6-dihydropyrrolo[3,4-c]pyrazole-5(1H)-carboxamide]	≥ 500	–	≥ 1000
CC1(C)c2[nH]nc(NC(=O)C3([Si](C)(C)C)CCC3)c2CN1C(=O)[C@H](OC(F)(F)F)c1ccccc1 [IV-1184, (R)—N-{6,6-Dimethyl-5-[2-phenyl-2-(trifluoromethoxy)acetyl]-1,4,5,6-tetrahydropyrrolo[3,4-c]pyrazol-3-yl}-1-(trimethylsilyl)cyclobutanecarboxamide]	≥ 500	–	≥ 1000
CCCO[C@@H](C(=O)N1Cc2c(NC(=O)C3([Si](C)(C)C)CCC3)n[nH]c2C1(C)C)c1ccccc1 [IV-1196, (R)—N-[6,6-Dimethyl-5-(2-phenyl-2-propoxyacetyl)-1,4,5,6-tetrahydropyrrolo[3,4-c]pyrazol-3-yl]-1-(trimethylsilyl)cyclobutanecarboxamide]	–	≤ 50	≥ 1000
CC1(C)c2[nH]nc(NC(=O)C3([Si](C)(C)C)CCC3)c2CN1C(=O)[C@H](OC1CC1)c1ccccc1 [IV-1208, (R)—N-[5-(2-Cyclopropoxy-2-phenylacetyl)-6,6-dimethyl-1,4,5,6-tetrahydropyrrolo[3,4-c]pyrazol-3-yl]-1-(trimethylsilyl)cyclobutanecarboxamide]	≥ 500	≤ 50	–
CO[C@@H](C(=O)N1Cc2c(NC(=O)C3([Si](C)(C)C)CCC3)n[nH]c2C1(C)C)c1ccccc1F [IV-1383, (R)—N-{5-[2-(2-Fluorophenyl)-2-methoxyacetyl]-6,6-dimethyl-1,4,5,6-tetrahydropyrrolo[3,4-c]pyrazol-3-yl}-1-(trimethylsilyl)cyclobutanecarboxamide]	≥ 500	≤ 50	–
COC(C(=O)N1Cc2c(NC(=O)C3([Si](C)(C)C)CCC3)n[nH]c2C1(C)C)c1cccc(F)c1 (centres unmarked) [IV-1404, N-{5-[2-(3-Fluorophenyl)-2-methoxyacetyl]-6,6-dimethyl-1,4,5,6-tetrahydropyrrolo[3,4-c]pyrazol-3-yl}-1-(trimethylsilyl)cyclobutanecarboxamide]	≥ 500	≤ 50	–
COC(C(=O)N1Cc2c(NC(=O)C3([Si](C)(C)C)CCC3)n[nH]c2C1(C)C)c1cccs1 (centres unmarked) [IV-1546, N-{5-[2-Methoxy-2-(thiophen-2-yl)acetyl]-6,6-dimethyl-1,4,5,6-tetrahydropyrrolo[3,4-c]pyrazol-3-yl}-1-(trimethylsilyl)cyclobutanecarboxamide]	≥ 500	≤ 50	–

Next, values leading:

Ki (PAK4) [nM]	Ki (CDK7) [nM]	Ki (CDK2) [nM]	SMILES
≥ 500	≤ 50	–	CC(C)(CO)C(NC(=O)N1Cc2c(NC(=O)C3([Si](C)(C)C)CCC3)n[nH]c2C1(C)C)c1ccccc1 (single isomer, unassigned; (-)) [IV-673, (−)-N-(3-Hydroxy-2,2-dimethyl-1-phenylpropyl)-6,6-dimethyl-3-[1-(trimethylsilyl)cyclobutanecarboxamido]-4,6-dihydropyrrolo[3,4-c]pyrazole-5(1H)-carboxamide]
≥ 500	≤ 50	≥ 1000	CC1(C)c2[nH]nc(NC(=O)C(C)(C)[Si](C)(C)C)c2CN1C(=O)N[C@H](CO)c1ccccc1 [II-114, (S)—N-(2-Hydroxy-1-phenylethyl)-6,6-dimethyl-3-[2-methyl-2-(trimethylsilyl)propanamido]-4,6-dihydropyrrolo[3,4-c]pyrazole-5(1H)-carboxamide]
≥ 500	≤ 50	≥ 1000	CC1(C)c2[nH]nc(NC(=O)C3([Si](C)(C)C)CC3)c2CN1C(=O)N[C@H](CO)c1ccccc1 [III-114, (S)—N-(2-Hydroxy-1-phenylethyl)-6,6-dimethyl-3-[1-(trimethylsilyl)cyclopropanecarboxamido]-4,6-dihydropyrrolo[3,4-c]pyrazole-5(1H)-carboxamide]
≥ 500	≤ 50	≥ 1000	CC1(C)c2[nH]nc(NC(=O)C3([Si](C)(C)C)CCC3)c2CN1C(=O)O[C@H](CO)c1ccccc1 [IV-2, (S)-2-Hydroxy-1-phenylethyl 6,6-dimethyl-3-[1-(trimethylsilyl)cyclobutanecarboxamido]-4,6-dihydropyrrolo[3,4-c]pyrazole-5(1H)-carboxylate]
–	≤ 50	–	CCOC[C@@H](NC(=O)N1Cc2c(NC(=O)C3([Si](C)(C)C)CCC3)n[nH]c2C1(C)C)c1ccccc1 [IV-139, (S)—N-(2-Ethoxy-1-phenylethyl)-6,6-dimethyl-3-[1-(trimethylsilyl)cyclobutanecarboxamido]-4,6-dihydropyrrolo[3,4-c]pyrazole-5(1H)-carboxamide]
–	≤ 50	≥ 1000	CC(C)(O)C[C@@H](NC(=O)N1Cc2c(NC(=O)C3([Si](C)(C)C)CCC3)n[nH]c2C1(C)C)c1ccc(F)cc1 [IV-939, (R)—N-[1-(4-Fluorophenyl)-3-hydroxy-3-methylbutyl]-6,6-dimethyl-3-[1-(trimethylsilyl)cyclobutanecarboxamido]-4,6-dihydropyrrolo[3,4-c]pyrazole-5(1H)-carboxamide]
–	≤ 50	–	CO[C@@H](C(=O)N1Cc2c(NC(=O)C3([Si](C)(C)C)CCC3)n[nH]c2C1(C)C)c1ccccc1 [IV-1175, (R)—N-[5-(2-Methoxy-2-phenylacetyl)-6,6-dimethyl-1,4,5,6-tetrahydropyrrolo[3,4-c]pyrazol-3-yl]-1-(trimethylsilyl)cyclobutanecarboxamide]
–	≤ 50	–	CC[Si](C)(C)C1(C(=O)Nc2n[nH]c3c2CN(C(=O)[C@H](OC)c2ccccc2)C3(C)C)CCC1 [IV-1178, (R)-1-(Ethyldimethylsilyl)-N-[5-(2-methoxy-2-phenylacetyl)-6,6-dimethyl-1,4,5,6-tetrahydropyrrolo[3,4-c]pyrazol-3-yl] cyclobutanecarboxamide]
–	≤ 50	–	CC1(C)c2[nH]nc(NC(=O)C3([Si](C)(C)C)CCC3)c2CN1C(=O)[C@H](OC(F)F)c1ccccc1 [IV-1180, (R)—N-{5-[2-(Difluoromethoxy)-2-phenylacetyl]-6,6-dimethyl-1,4,5,6-tetrahydropyrrolo[3,4-c]pyrazol-3-yl}-1-(trimethylsilyl)cyclobutanecarboxamide]
–	≤ 50	–	CCO[C@@H](C(=O)N1Cc2c(NC(=O)C3([Si](C)(C)C)CCC3)n[nH]c2C1(C)C)c1ccccc1 [IV-1188, (R)—N-[5-(2-Ethoxy-2-phenylacetyl)-6,6-dimethyl-1,4,5,6-tetrahydropyrrolo[3,4-c]pyrazol-3-yl]-1-(trimethylsilyl)cyclobutanecarboxamide]
